From the supplement of paper PMC10307832

Assays:
Assay in all cases: relative viability (nuclei count vs DMSO), 5 days (fraction); higher = more cells survive
[1] = compound: CC1=CC(=NN1)NC2=CC(=NC(=N2)/C=C/C3=CC=CC=C3)N4CCN(CC4)C + CC(C)C[C@H](NC(=O)[C@H](Cc1ccccc1)NC(=O)c1cnccn1)B(O)O [Bortezomib] (partner 0.002 µM)
In short: (§1)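 Values are medians from duplicate plates. Each reflects relative viability, defined as the nuclei count of treated wells over that of vehicle wells. Lung cancer cell lines in 1536-well plates were pin-tool dosed one day after seeding with one drug alone or with a fixed anchor-drug dose plus five library-drug doses (not always all listed) in √10 steps, then fixed, stained and imaged at 4× after 5 days.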

[2] = compound: CC1=CC(=NN1)NC2=CC(=NC(=N2)/C=C/C3=CC=CC=C3)N4CCN(CC4)C + CS(=O)(=O)CCNCc1ccc(-c2ccc3ncnc(Nc4ccc(OCc5cccc(F)c5)c(Cl)c4)c3c2)o1 [Lapatinib] (partner 2 µM)
In short: as §1

[3] = compound: CC1=CC(=NN1)NC2=CC(=NC(=N2)/C=C/C3=CC=CC=C3)N4CCN(CC4)C + CCNC(=O)c1noc(-c2cc(C(C)C)c(O)cc2O)c1-c1ccc(CN2CCOCC2)cc1 [Luminespib] (partner 0.01 µM)
In short: as §1

Obatoclax + Foretinib = compound: COC1=CC(c2cc3ccccc3[nH]2)=N/C1=C\c1[nH]c(C)cc1C [Obatoclax] + COc1cc2c(Oc3ccc(NC(=O)C4(C(=O)Nc5ccc(F)cc5)CC4)cc3F)ccnc2cc1OCCCN1CCOCC1 [Foretinib] (partner 0.25 µM)
In short: as §1

NCI-H650
relative viability ([1]; first compound 0.08 µM): 0.839
relative viability ([1]; first compound 0.253 µM): 1.01
relative viability ([1]; first compound 0.8 µM): 0.673
relative viability ([1]; first compound 2.53 µM): 0.364
relative viability ([1]; first compound 8 µM): 0.187
relative viability ([2]; first compound 0.08 µM): 0.804
relative viability ([2]; first compound 0.253 µM): 1.15
relative viability ([2]; first compound 0.8 µM): 0.839
relative viability ([2]; first compound 2.53 µM): 0.378
relative viability ([2]; first compound 8 µM): 0.271
relative viability ([3]; first compound 0.253 µM): 0.915
relative viability ([3]; first compound 0.8 µM): 0.813
relative viability ([3]; first compound 2.53 µM): 0.411
relative viability ([3]; first compound 8 µM): 0.111
relative viability (Obatoclax + Foretinib; first compound 0.01 µM): 1.01
relative viability (Obatoclax + Foretinib; first compound 0.03162 µM): 0.986
relative viability (Obatoclax + Foretinib; first compound 0.3162 µM): 0.717
relative viability (Obatoclax + Foretinib; first compound 1 µM): 0.38
